Laboratory results from ChEMBL document CHEMBL1201862, “PubChem BioAssay data set” (2004).
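In this assay, cells in 96-well plates receive the compound at five concentrations for 48 hours. Endpoints are linearly interpolated between the surrounding concentrations. GI50 marks 50% less growth.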 Calls of active or inactive are those of the source. Cut-off read from the data, not from the text of the source: active = GI50 up to about 1.1 µM and inactive = higher.

What was measured:
Experiment in all cases: NCI anticancer screen, dose series, 48 h
T47D = tested on: T47D
EKVX = tested on: EKVX
BT-549 = tested on: BT-549
Hs-578T = tested on: Hs-578T
OVCAR-8 = tested on: OVCAR-8
LOX IMVI = tested on: LOX IMVI
U-251 = tested on: U-251
UO-31 = tested on: UO-31
OVCAR-4 = tested on: OVCAR-4
HL-60 = tested on: HL-60
Malme-3M = tested on: Malme-3M
HT-29 = tested on: HT-29
SK-OV-3 = tested on: SK-OV-3
TK-10 = tested on: TK-10
HOP-62 = tested on: HOP-62
CCRF-CEM = tested on: CCRF-CEM
SK-MEL-2 = tested on: SK-MEL-2
HOP-92 = tested on: HOP-92
A498 = tested on: A498
MDA-N = tested on: MDA-N

Measured: GI50

N=c1oc2ccc([N+](=O)[O-])cc2cc1C(=O)NCc1ccccc1
inactive: T47D 17.9 µM | EKVX 38.8 µM | BT-549 14 µM | Hs-578T 18.7 µM | OVCAR-8 15.2 µM | LOX IMVI 17.7 µM | U-251 28 µM | UO-31 18 µM | OVCAR-4 24.6 µM | HL-60 27.2 µM | Malme-3M 13.5 µM | HT-29 18.5 µM | SK-OV-3 39.2 µM | TK-10 29.2 µM | HOP-62 38.5 µM | CCRF-CEM 27 µM | SK-MEL-2 19.3 µM | HOP-92 18 µM

O=[N+]([O-])C(C(Cl)=C(Cl)Cl)=C(N1CCOCC1)N1CCOCC1
inactive: T47D > 100 µM | EKVX > 100 µM | Hs-578T 54.2 µM | OVCAR-8 > 100 µM | LOX IMVI > 100 µM | U-251 > 100 µM | UO-31 > 100 µM | OVCAR-4 > 100 µM | HL-60 > 100 µM | Malme-3M 57.3 µM | A498 > 100 µM | HT-29 > 100 µM | SK-OV-3 > 100 µM | TK-10 > 100 µM | HOP-62 > 100 µM | CCRF-CEM > 100 µM | MDA-N > 100 µM | SK-MEL-2 > 100 µM

COCn1cc(C2=C(C)C(=O)C(C)=C(C)C2=O)cn1
inactive: T47D 23.6 µM | EKVX 18.2 µM | Hs-578T > 100 µM | OVCAR-8 21.1 µM | LOX IMVI > 10 µM | UO-31 57.5 µM | OVCAR-4 17.7 µM | HL-60 4.6 µM | Malme-3M 99.5 µM | A498 > 100 µM | HT-29 > 100 µM | TK-10 > 100 µM | HOP-62 > 100 µM | CCRF-CEM 21.9 µM | MDA-N 48.6 µM | SK-MEL-2 > 100 µM | HOP-92 12.7 µM

CN(C)c1cccc2c(S(=O)(=O)NCCCNCCN)cccc12
inactive: T47D 49.4 µM | EKVX > 100 µM | Hs-578T 22.3 µM | LOX IMVI 66.8 µM | U-251 29 µM | UO-31 56.9 µM | OVCAR-4 55.2 µM | HL-60 26.1 µM | Malme-3M 61.5 µM | A498 29.6 µM | HT-29 25.9 µM | SK-OV-3 46.9 µM | HOP-62 67.8 µM | CCRF-CEM 22.3 µM | MDA-N 26.2 µM | SK-MEL-2 25.9 µM | HOP-92 34.4 µM

O=C(O)c1c2c(cc3c1CC1(Cc4ccccc4C1=O)C3)CCC2 (stereo not given)
inactive: T47D 32.5 µM | EKVX 33.9 µM | BT-549 33 µM | Hs-578T 34 µM | OVCAR-8 44.9 µM | LOX IMVI 23.8 µM | U-251 29 µM | UO-31 38 µM | OVCAR-4 27.8 µM | HL-60 3.17 µM | Malme-3M 16.5 µM | A498 33 µM | HT-29 14.8 µM | SK-OV-3 47.4 µM | TK-10 > 66.7 µM | HOP-62 64.7 µM | CCRF-CEM 9.91 µM | SK-MEL-2 19 µM | HOP-92 25.5 µM

O=C(O)c1ccc(Nc2cnc3cc(C(F)(F)F)ccc3n2)cc1
inactive: T47D 20.9 µM | EKVX 40.6 µM | Hs-578T 40 µM | OVCAR-8 52.1 µM | LOX IMVI 35.8 µM | U-251 48.2 µM | UO-31 43.2 µM | HL-60 22.8 µM | Malme-3M 29.5 µM | HT-29 63.2 µM | TK-10 31.5 µM | HOP-62 90.2 µM | CCRF-CEM 57.9 µM | MDA-N 53.8 µM

CN(C)c1ccc(/C=C(\NC(=O)c2ccccc2)C(=O)NC(CC(=O)O)C(=O)O)cc1 (stereo not given)
inactive: T47D > 100 µM | EKVX > 100 µM | BT-549 > 100 µM | Hs-578T 49.7 µM | OVCAR-8 68.9 µM | LOX IMVI 86.3 µM | U-251 > 100 µM | UO-31 > 100 µM | OVCAR-4 53.2 µM | HL-60 > 100 µM | A498 > 100 µM | HT-29 > 100 µM | SK-OV-3 > 100 µM | TK-10 > 100 µM | HOP-62 22.9 µM | CCRF-CEM > 100 µM | SK-MEL-2 > 100 µM | HOP-92 > 100 µM

CC1(C)OC([C@H](O)CO)C([C@H]2NCCS2)O1 (stereo not given in full)
inactive: T47D > 100 µM | EKVX > 100 µM | BT-549 > 100 µM | Hs-578T > 100 µM | OVCAR-8 > 100 µM | LOX IMVI > 100 µM | U-251 > 100 µM | UO-31 > 100 µM | OVCAR-4 > 100 µM | HL-60 > 100 µM | Malme-3M > 100 µM | A498 > 100 µM | HT-29 > 100 µM | SK-OV-3 > 100 µM | TK-10 > 100 µM | HOP-62 > 100 µM | CCRF-CEM > 100 µM | SK-MEL-2 > 100 µM | HOP-92 > 100 µM

Cn1c(=O)c2nc(/N=N/Nc3nncs3)[nH]c2n(C)c1=O
inactive: T47D > 100 µM | EKVX > 100 µM | BT-549 > 100 µM | Hs-578T > 100 µM | OVCAR-8 > 100 µM | LOX IMVI > 100 µM | U-251 > 100 µM | UO-31 > 100 µM | OVCAR-4 > 100 µM | A498 > 100 µM | HT-29 > 100 µM | SK-OV-3 > 100 µM | TK-10 > 100 µM | HOP-62 > 100 µM | CCRF-CEM > 100 µM | SK-MEL-2 > 100 µM | HOP-92 > 100 µM

CC(C)CCC[C@@H](C)[C@H]1CC[C@H]2[C@@H]3CC[C@H]4C[C@@H](CCC=C(c5cc(Cl)c(O)c(C(=O)O)c5)c5cc(Cl)c(O)c(C(=O)O)c5)CC[C@]4(C)[C@H]3CC[C@]12C
inactive: T47D > 100 µM | EKVX > 100 µM | BT-549 > 100 µM | Hs-578T > 100 µM | OVCAR-8 > 100 µM | LOX IMVI > 100 µM | U-251 > 100 µM | UO-31 > 100 µM | OVCAR-4 > 100 µM | HL-60 > 100 µM | Malme-3M > 100 µM | A498 > 100 µM | HT-29 > 100 µM | SK-OV-3 > 100 µM | TK-10 > 100 µM | HOP-62 > 100 µM | CCRF-CEM > 100 µM | SK-MEL-2 > 100 µM | HOP-92 > 100 µM

O=C1Cc2c([nH]c3ccc(Br)cc23)-c2ccccc2N1 [KENPAULLONE]
inactive: T47D > 100 µM | EKVX > 100 µM | Hs-578T > 100 µM | OVCAR-8 > 100 µM | LOX IMVI 5.35 µM | U-251 > 51.5 µM | UO-31 > 100 µM | OVCAR-4 > 100 µM | HL-60 5.21 µM | Malme-3M > 100 µM | A498 > 100 µM | HT-29 5.19 µM | SK-OV-3 > 100 µM | TK-10 > 100 µM | HOP-62 65.8 µM | CCRF-CEM 5.55 µM | MDA-N > 100 µM | SK-MEL-2 > 100 µM | HOP-92 > 100 µM
